From patent US5112846A, “N-hydroxyamide, N-hydroxythioamide, hydroxyurea, and N-hydroxythiourea derivatives of selected nsaids as antiinflammatory agents” (Warner-Lambert Company, priority 1990, dated 1992)
Like-named read-outs stand apart in the source and are kept apart here.

Assays:
5-Lipoxygenase = target: T1, 5-Lipoxygenase (Rattus norvegicus, UniProt P12527); test: ARBL whole cell 5-lipoxygenase assay (LTB4 formation in RBL-1 cells, A23187 stimulated); type: cell-based; details: RBL-1 cells; for IC50: read-out: ARBL IC50 (inhibition of LTB4 formation); for inhibition at 16 µM: read-out: ARBL % inhibition of LTB4
T1 construct: host or cells: RBL-1 rat basophilic leukemia cells
T1 sequence (P12527 1-673): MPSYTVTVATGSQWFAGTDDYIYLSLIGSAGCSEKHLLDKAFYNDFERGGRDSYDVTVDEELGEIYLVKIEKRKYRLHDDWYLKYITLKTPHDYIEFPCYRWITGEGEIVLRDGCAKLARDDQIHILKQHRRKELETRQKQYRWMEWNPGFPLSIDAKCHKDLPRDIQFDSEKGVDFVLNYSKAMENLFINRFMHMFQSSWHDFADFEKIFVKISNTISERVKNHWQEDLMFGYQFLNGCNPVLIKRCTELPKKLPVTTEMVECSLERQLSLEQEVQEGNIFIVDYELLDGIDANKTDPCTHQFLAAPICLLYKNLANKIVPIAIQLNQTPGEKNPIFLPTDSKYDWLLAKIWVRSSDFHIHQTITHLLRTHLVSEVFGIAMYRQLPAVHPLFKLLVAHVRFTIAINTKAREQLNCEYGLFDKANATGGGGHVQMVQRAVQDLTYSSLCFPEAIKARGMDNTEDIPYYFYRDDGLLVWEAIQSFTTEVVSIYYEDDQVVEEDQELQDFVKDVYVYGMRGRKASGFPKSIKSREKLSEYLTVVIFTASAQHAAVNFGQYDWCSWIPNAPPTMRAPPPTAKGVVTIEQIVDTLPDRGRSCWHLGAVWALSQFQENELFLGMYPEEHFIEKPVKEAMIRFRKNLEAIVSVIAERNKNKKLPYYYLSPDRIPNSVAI
Experimental: (§1) ARBL/ARBC Whole Cell 5-Lipoxygenase and Cyclooxygenase Assays
(§2) The rat basophilic leukemia cell line (RBL-1) was obtained from the American Type Culture Collection (Rockville, MD).
(§3) Radioimmunoassay (RIA) kits of LTB4 and PGF2α were obtained from Amersham (Arlington Heights, IL) and Seragen (Boston, MA), respectively.
(§4) RBL-1 cells are grown in suspension culture in Eagle's minimum essential medium supplemented with 12% fetal bovine serum at 37° C. in an incubator supplied with air-5% carbon dioxide. Cells are harvested by centrifugation. They are washed with cold phosphate buffered saline pH 7.4 (PBS; NaCl, 7.1 g; Na2 HPO4, 1.15 g; KH2 PO4, 0.2 g; and KCl, 0.2 g/l). Cells are finally suspended in PBS containing 1.0 mM calcium at a density of 2×10^6 cells/ml. Cells are incubated with and without test agent (in DMSO) (1% DMSO is without effect on arachidonic acid metabolism) for ten minutes at room temperature. Calcium ionophore A23187 (5 μM) is added and cells are incubated for seven minutes at 37° C. The reaction is stopped by chilling the tubes on ice for ten minutes. Cells are separated by centrifugation and the supernatant is stored at -20° C. Aliquots (100 μl) are analyzed for LTB4 and PGF2α using radioimmunoassay kits as provided by the supplier.
(§5) Tables 1-4 contain biochemical data obtained from this whole cell assay either as IC50 s which are calculated as the amount of test compound causing 50% inhibition of LTB4 or PGF2α formation or % inhibition of LTB4 or PGF2α at the indicated amount expressed as μM.

Cyclooxygenase = target: T2, Cyclooxygenase (Rattus norvegicus, UniProt Q63921); test: ARBC whole cell cyclooxygenase assay (PGF2α formation in RBL-1 cells, A23187 stimulated); type: cell-based; details: for IC50: read-out: ARBC IC50 (inhibition of PGF2α formation); for inhibition at 32 µM: Table 3, read-out: ARBC % inhibition (N @ 32)
T2 construct: host or cells: RBL-1 rat basophilic leukemia cells
T2 sequence (Q63921 27-602): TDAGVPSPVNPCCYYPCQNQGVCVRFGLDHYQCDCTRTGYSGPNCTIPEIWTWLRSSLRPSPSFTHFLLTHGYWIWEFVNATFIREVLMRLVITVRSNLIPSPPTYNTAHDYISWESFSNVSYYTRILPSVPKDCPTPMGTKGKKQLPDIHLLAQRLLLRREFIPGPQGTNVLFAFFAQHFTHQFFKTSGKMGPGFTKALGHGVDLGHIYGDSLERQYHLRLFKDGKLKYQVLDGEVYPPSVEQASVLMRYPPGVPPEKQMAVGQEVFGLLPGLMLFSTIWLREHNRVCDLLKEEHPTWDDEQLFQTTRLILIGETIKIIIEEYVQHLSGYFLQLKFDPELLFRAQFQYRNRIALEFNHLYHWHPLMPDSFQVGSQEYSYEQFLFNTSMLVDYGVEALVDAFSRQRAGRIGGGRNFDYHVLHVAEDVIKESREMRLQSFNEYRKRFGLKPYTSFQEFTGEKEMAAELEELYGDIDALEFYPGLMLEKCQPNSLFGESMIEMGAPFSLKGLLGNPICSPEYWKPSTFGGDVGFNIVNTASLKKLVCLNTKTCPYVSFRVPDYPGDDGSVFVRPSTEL
Experimental: as §1, §2, §3, §4, §5

[1] = RBL-1, Table 1, read-out: ARBC % inhibition (N)
[2] = RBL-1 cells, read-out: ARBC % inhibition of PGF2α
[3] = RBL-1, Table 2, read-out: ARBC % inhibition (N)

Structure (SMILES) | IC50 (5-Lipoxygenase) [nM] | inhibition at 16 µM (5-Lipoxygenase) [%] | IC50 (Cyclooxygenase; RBL-1 cells) [µM] | further results
CC(=O)N(O)C(C)c1ccc2c(c1)Cc1ccccc1-2 (stereo not shown) [Example 11, N-(1-(9H-Fluoren-2-yl)ethyl)-N-hydroxy-acetamide] | 760 |  |  | inhibition at 16 µM (Cyclooxygenase; [1]): < 40%
CCOC(=O)N(O)C(C)c1ccc2c(c1)Cc1ccccc1-2 (stereo not drawn) [Example 12, N-Hydroxy-alpha-methyl-9H-fluorene-2-methanamine carbamic acid, ethyl ester] |  | 95 |  | inhibition at 16 µM (Cyclooxygenase; [2]): 79%
CC(C)C(=O)N(O)C(C)c1ccc2c(c1)Cc1ccccc1-2 (stereo not shown) [Example 13] |  | 90 |  | inhibition at 16 µM (Cyclooxygenase; [1]): < 40%
CCNC(=S)N(O)C(C)c1ccc2c(c1)Cc1ccccc1-2 (stereo not shown) [Example 14, N-(1-(9H-Fluoren-2-yl)ethyl)-N-hydroxy-N'-ethylthiourea] |  |  |  | inhibition at 0.25 µM (5-Lipoxygenase; at 0.25 μM): 56%; inhibition at 16 µM (Cyclooxygenase; [1]): < 40%
CC(C)C(=O)N(O)Cc1ccc2c(c1)OCc1ccccc1C2=O [Example 17, N[(6,11-Dihydro-11-oxodibenz[b,el]oxepin-3-yl)methyl]N-hydroxy-2-methylpropanamide] |  | 100 | 5.8 | 
CC(=O)N(O)Cc1ccc2c(c1)OCc1ccccc1C2=O [Example 18, N-[(6,11-Dihydro-11-oxodibenz[b,el]oxepin-3-yl)methyl]-N-hydroxyacetamide] | 840 |  |  | inhibition at 16 µM (Cyclooxygenase; [3]): < 40%
CCOC(=O)C(=O)N(O)Cc1ccc2c(c1)OCc1ccccc1C2=O [Example 19, Ethyl[[(6,11-Dihydro-11-oxodibenz[b,e]oxepin-3-yl)methyl]hydroxyamino]oxoacetate] |  | 84 |  | inhibition at 16 µM (Cyclooxygenase; [3]): < 40%
CNC(=O)N(O)Cc1ccc2c(c1)OCc1ccccc1C2=O [Example 20, N-[(6,11-Dihydro-11-oxodibenz[b,e]oxepin-3-yl)methyl]-N-hydroxy-N'-methylurea] | 510 |  |  | inhibition at 16 µM (Cyclooxygenase; [3]): < 40%
CC(=O)N(O)Cc1ccccc1Nc1cccc(C)c1C [Example 47] | 510 |  | 15 | 
CC(=O)N(O)Cc1ccccc1Nc1c(Cl)cccc1Cl [Example 48, N-[[(2,6-Dichlorophenyl)amino]phenyl]methyl-N-hydroxyacetamide] | 1300 |  |  | inhibition at 32 µM (Cyclooxygenase; RBL-1): < 40%
CC(=O)N(O)C(C)c1ccccc1Nc1c(Cl)ccc(C)c1Cl (stereo not shown) [Example 53, N-[1-[2-[(2,6-dichloro-3-methylphenyl)amino]phenyl]ethyl]-N-hydroxyacetamide] | 1800 |  |  | inhibition at 32 µM (Cyclooxygenase; RBL-1): < 40%
CC(=O)N(O)Cc1ccccc1Nc1c(Cl)ccc(C)c1Cl [Example 54, N-[[2-[(2,6-Dichloro-3-methylphenyl)amino]phenyl]methyl]-N-hydroxyacetamide] | 180 |  | 5 | 
CC(=O)N(O)Cc1ccccc1Nc1cccc(C(F)(F)F)c1 [Example 55] | 280 |  | 5.2 | 
CNC(=O)N(O)Cc1ccccc1Nc1cccc(C(F)(F)F)c1 [Example 56] | 120 |  | 2.2 | 
CCOC(=O)N(O)Cc1ccccc1Nc1cccc(C(F)(F)F)c1 [Example 57, N-Hydroxy-N-[[2-[[3-(trifluoromethyl)phenyl]amino]phenyl]methyl]carbamic acid, ethyl ester] |  | 100 |  | inhibition at 16 µM (Cyclooxygenase; [2]): 91%
CCOC(=O)CC(=O)N(O)Cc1c(C)n(C(=O)c2ccc(Cl)cc2)c2ccc(OC)cc12 [Example 64, 3-[[[1-(4-Chlorobenzoyl)-5-methoxy-2-methyl-1H-indol-3-yl]methyl]hydroxyamino]-3-oxo-propanoic acid, ethyl ester] | 1100 |  | 14 | 
COC(=O)CCC(=O)N(O)Cc1c(C)n(C(=O)c2ccc(Cl)cc2)c2ccc(OC)cc12 [Example 65, 4-[[[1-(4-Chlorobenzoyl)-5-methoxy-2-methyl-1H-indol-3-yl]methyl]hydroxyamino]-4-oxo-butanoic acid, methyl ester] | 1300 |  | 9.4 | 
COc1ccc2c(c1)c(CN(O)C(=O)N(C)C)c(C)n2C(=O)c1ccc(Cl)cc1 [Example 70, 1-(4-Chlorobenzoyl)-N-[(dimethylamino)carbonyl]-N-hydroxy-5-methoxy-2-methyl-1H-indole-3-methanamine] |  | 100 |  | inhibition at 16 µM (Cyclooxygenase; [2]): 73%
C=CCNC(=O)N(O)Cc1c(C)n(C(=O)c2ccc(Cl)cc2)c2ccc(OC)cc12 [Example 71, 1-(4-Chlorobenzoyl)-N-hydroxy-5-methoxy-2-methyl-N-[(2-propenylamino)carbonyl]-1H-indole-3-methanamine] |  | 100 |  | inhibition at 16 µM (Cyclooxygenase; [2]): 50%
CNC(=S)N(O)Cc1c(C)n(C(=O)c2ccc(Cl)cc2)c2ccc(OC)cc12 [Example 74, 1-(4-Chlorobenzoyl)-N-hydroxy-5-methoxy-2-methyl-N-[(methylamino)thioxomethyl]-1H-indole-3-methanamine] | 400 |  | 7.1 | 
